Laboratory results published in patent US20240374626A1, “METHODS OF ENHANCING MILK PRODUCTION IN LACTATING MAMMALIAN SUBJECTS” (priority 2023, published 2024).

Legend:
Format in all cases: in vivo, mouse
γH2AX = experiment: Contralateral intraductal injection: γH2AX IHC in CK8+ luminal cells of MG; conditions: Hydroxyurea IDI at PD8.5 and PD12.5 vs contralateral PBS, at PD13.5
Method: (§1) Nulliparous analysis was performed using adult (10-12-week-old) female mice. For timed pregnancies and lactation analysis, CD-1 pregnant adult females were obtained from Charles Rivers. Embryos were examined at the time of mammary gland harvesting to confirm pregnancy state. […] Plugged mice were considered to be PD0.5 on the day of the observed plug. All females used in this study were age matched.
(§2) Mice were anesthetized with isoflurane (VetOne, 501017) Prior to intraductal injections, hair was removed from around the nipples using Nair hair remover. Injections into the duct of the nipple were performed with 33 G needles (Hamilton, 7803-05) and a volume of 40 μl per gland. Right inguinal, abdominal and thoracic glands were injected with doxorubicin (1.5 μg per gland, Cayman Chemical, 15007), nucleosides (40 μl per gland, Millipore-Sigma, ES-008-D) or Mk-1775 (50 μg per gland, Cayman Chemical, 21266), and left glands were injected with PBS or DMSO (Thermo Scientific, BP231) diluted in PBS.
(§3) Mammary gland tissue was fixed in 10% neutral buffered formalin (EMD Millipore, MR0458682) at 4° C. overnight. Fixation was quenched using 0.2% glycine (Fisher Scientific, BP381) in PBS, for 1 h at room temperature. […] Integrated density of nuclear γH2AX and pATR was quantified using ImageJ.

pATR = experiment: Contralateral intraductal injection: pATR IHC in CK8+ luminal cells of MG; conditions: Hydroxyurea IDI at PD8.5 and PD12.5 vs contralateral PBS, at PD13.5
Method: as §1, §2, §3

Csn2 = experiment: Contralateral intraductal injection: Csn2 expression in MGs by RT-qPCR; conditions: Hydroxyurea IDI at PD8.5 and PD12.5 vs contralateral PBS, LD2 MGs
Method: as §1, §2
For RNA isolation from FACS purified populations, mammary gland cell suspensions were blocked using Mouse BD Fc Block™ (BD Biosciences) for 10 min. Cells were subsequently resuspended on 1×PBS at a density of 10^7 cells/ml and stained with the following antibodies for 30 min on ice: anti-CD24 PE (Stem Cell Technologies, 60099PE.1), anti-CD29 PE-Cy7 (BioLegend, 102222), anti-CD45-APC (BioLegend,105826), Ter119-APC (BD Biosciences, 561033), CD31-ACP (BD Biosciences, 551262). Propidium iodide at a final concentration of 0.5 μg/ml was used for the discrimination of dead cells. Stromal, basal and luminal mammary populations were sorted using a BD FACS Aria II Cell Sorter. […] Total RNA quality was analyzed by agarose gel electrophoresis and quantified using an ND-1000 spectrophotometer (NanoDrop). cDNA was prepared from 500-1000 ng of total RNA using iScript cDNA synthesis kit (Bio-Rad, 1708841). Quantitative RT-qPCR was performed in triplicates using SsoAdvanced Universal SYBR Green Supermix, (Bio-Rad, 1725272). […]

MG alveoli = experiment: Contralateral intraductal injection: milk staining (IHC) integrated density per alveolus; conditions: Hydroxyurea IDI at PD8.5 and PD12.5 vs contralateral PBS, LD2 MG section
Method: as §1
(§4) Mice were anesthetized with isoflurane (VetOne, 501017) Prior to intraductal injections, hair was removed from around the nipples using Nair hair remover. Injections into the duct of the nipple were performed with 33 G needles (Hamilton, 7803-05) and a volume of 40 μl per gland. […]
Mammary gland tissue was fixed in 10% neutral buffered formalin (EMD Millipore, MR0458682) at 4° C. overnight. […] Incubation with secondary antibodies [(donkey anti-Rat 647 (Thermo-Invitrogen; A48272) and donkey anti-Rabbit 488 (Thermo-Invitrogen; A32790)] was performed for 2 h at room temperature. Sections were washed with 0.3% triton in PBS for 30 min (×3) at room temperature and mounted using flouromount-G (Southern Biotech, 0100-01). Image acquisition was performed using Zeiss Axio Imager Microscope. Macros were generated to quantify lumen milk integrated density per alveolus using Image J.

Wee1 = experiment: Contralateral intraductal injection: Wee1 expression in whole MG tissue by RT-qPCR; conditions: IDI of hydroxyurea into pregnant MG vs contralateral PBS
Method: as §1, §4
For RNA isolation from FACS purified populations, mammary gland cell suspensions were blocked using Mouse BD Fc Block™ (BD Biosciences) for 10 min. […] Total RNA quality was analyzed by agarose gel electrophoresis and quantified using an ND-1000 spectrophotometer (NanoDrop). cDNA was prepared from 500-1000 ng of total RNA using iScript cDNA synthesis kit (Bio-Rad, 1708841). Quantitative RT-qPCR was performed in triplicates using SsoAdvanced Universal SYBR Green Supermix, (Bio-Rad, 1725272). […]

CK8+ luminal cells = experiment: Contralateral intraductal injection: FACS DNA content analysis of CK8+ luminal cells; conditions: Hydroxyurea IDI at PD8.5 and PD12.5 vs contralateral PBS, by LD5

## NC(=O)NO [Hydroxyurea]
γH2AX
  γH2AX in CK8+ population: increased
pATR
  pATR in CK8+ population: increased
Csn2
  Csn2 expression, RT-qPCR: increase
MG alveoli
  increase in milk (average integrated density of milk staining among alveoli): ~15%
Wee1
  Wee1 expression in whole MG tissue, RT-qPCR: upregulated
CK8+ luminal cells
  decrease in 2C CK8+ population (in the overall population): 5.5%
  increase in 4C CK8+ population (in the overall population): 2%
  increase in >4C CK8+ population (in the overall population): 48%
